Values of other authors as cited in US11091809B2, “Molecular diagnostic test for cancer” (ALMAC DIAGNOSTICS LIMITED, priority 2012, dated 2021).

How the values were obtained:
[1] = system: primary peritoneal carcinoma, fallopian tube carcinoma, and epithelial ovarian carcinoma; conditions: ICON7
ovarian cancer = conditions: bevacizumab monotherapy
rectal cancer = conditions: bevacizumab monotherapy
renal cancer = conditions: bevacizumab monotherapy

For “bevacizumab: recombinant humanised version of a murine anti-human VEGF monoclonal antibody”, the “hazard ratio for death” value ([1]; bevacizumab group, patients at high risk of progression (FIGO stage IV or stage III with greater than 1.0 cm residual disease after debulking surgery)) is listed as 0.64, the “hazard ratio for progression-free survival” value ([1]; standard chemotherapy (carboplatin and paclitaxel) and bevacizumab vs standard chemotherapy) is listed as 0.81 and the “patients showing partial regression” value (ovarian cancer) is listed as 21%. The “patients showing partial regression” value (rectal cancer) was 33% and the “patients showing partial regression” value (renal cancer) was 10%.
